The record followed here is US7754866B2 (Arena Pharmaceuticals, Inc., priority 1997, dated 2010).

The target of series [1] is T1, 5HT2A receptors (fourth layer of the cerebral cortex) (Rattus norvegicus, UniProt P14842).
T1 construct: from tissue; host or cells: horizontal sections of Sprague-Dawley rat brain, cerebral cortex
In words: I125-LSD displacement from rat brain sections, cerebral cortex. The conditions noted are these: 1 micromolar compound, 1 nanomolar I125-LSD, autoradiography. The class given is binding, Sprague-Dawley rats.

In series [2] the test system is dopamine D2 receptors (caudate nucleus). In words: I125-LSD displacement from rat brain sections, caudate nucleus. The conditions noted are these: 1 micromolar compound, 1 nanomolar I125-LSD, autoradiography. The class given is binding, Sprague-Dawley rats.
Series [3] deals with T2, constitutively active mutant human 5HT2C receptor AP-1 (Homo sapiens, UniProt P28335, S310K).
T2 construct: expressed in transfected cells; host or cells: COS7 cells, pCMV vector, transient
T2 sequence (P28335 33-458 S310K): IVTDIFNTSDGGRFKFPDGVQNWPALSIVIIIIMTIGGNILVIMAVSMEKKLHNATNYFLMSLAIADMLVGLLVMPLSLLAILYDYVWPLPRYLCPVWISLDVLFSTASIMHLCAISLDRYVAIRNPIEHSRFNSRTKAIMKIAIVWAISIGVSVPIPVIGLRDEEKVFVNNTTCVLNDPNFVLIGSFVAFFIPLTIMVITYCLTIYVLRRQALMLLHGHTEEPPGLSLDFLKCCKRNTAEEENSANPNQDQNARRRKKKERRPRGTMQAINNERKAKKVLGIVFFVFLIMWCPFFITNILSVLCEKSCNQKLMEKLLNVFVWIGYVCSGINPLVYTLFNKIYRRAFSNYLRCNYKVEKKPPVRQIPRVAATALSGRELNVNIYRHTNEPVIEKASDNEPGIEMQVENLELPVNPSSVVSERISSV
Nature of the series: [35S]GTPγS binding assay with membranes of COS7 cells expressing AP-1. The format is biochemical. The conditions noted are these: for IC50: read-out: IC50 (nM) in GTP-γ-[35S] Assay. On the technique in general: Binding of GTPγS marks nucleotide exchange on a G protein.

The target of series [4] is T3, mutated human 5HT2C receptor (AP-1) (Homo sapiens, UniProt P28335, S310K).
T3 construct: expressed in transfected cells; host or cells: COS7 cells, pCMV vector, transient
T3 sequence (P28335 33-458 S310K): T2 sequence (P28335 33-458 S310K)
Nature of the series: Competitive binding assay, [3H]mesulergine, AP-1. The conditions noted are these: Competitive Binding AP-1 ([3H]mesulergine) IC50 Value (μM), 1 nM [3H]mesulergine, COS7 membranes.

In series [5] the target is T4, human mutated 5HT2A receptor, AP-3 (Homo sapiens, UniProt P28223, T25N).
T4 construct: Inositol Phosphate Accumulation AP-3 IC50 Value (nM); other: several concentrations; IP3 % of Control; other: one concentration of 10 μM, triplicate; control without test compound
In words: Inositol phosphate accumulation assay, AP-3.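 For all read-outs here: transfected 293 cells prelabeled with 3H-inositol, exposed to compound 120 min at 37 °C with LiCl and pargyline, inositol trisphosphates isolated by anion exchange and counted by scintillation.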 The conditions noted are these: for remaining activity at 10 µM: read-out: IP3 % of Control; for pIC50: several concentrations, read-out: IP3 AP-3 IC50. The format is cell-based.

Series [6] concerns the target T5, wild type human 5HT2A receptor (Homo sapiens, UniProt P28223).
T5 construct: expressed in transfected cells; host or cells: COS-7 cells, pCMV vector
In words: Competitive binding assay, [3H]LSD, WT 5HT2A. The conditions noted are these: for difference in selectivity preference (IC50 values) for the 5HT2A receptor compared with the 5HT2C receptor: 5HT2A versus 5HT2C.

In series [7] the target is T6, endogenous human 5-HT2C receptor (Homo sapiens, UniProt P28335).
T6 sequence (P28335 33-458): T2 sequence (P28335 33-458 S310K) with K278S

The mark [8] stands for this setting: 12.5 μg COS7 membranes expressing AP-1, 1 μM GDP, eight concentrations in triplicate.
The mark [9] stands for this setting: competitive binding using LSD, read-out: WT 5HT2A LSD IC50.
The mark [10] stands for this setting: one concentration of 10 μM, triplicate, control without test compound.

Changes are numbered by the printed parent chain. pIC50: −log10 of the molar value. Read-outs that look alike come from different tables or passages of the source.

T4 sequence (P28223 whole entry T25N, looked up): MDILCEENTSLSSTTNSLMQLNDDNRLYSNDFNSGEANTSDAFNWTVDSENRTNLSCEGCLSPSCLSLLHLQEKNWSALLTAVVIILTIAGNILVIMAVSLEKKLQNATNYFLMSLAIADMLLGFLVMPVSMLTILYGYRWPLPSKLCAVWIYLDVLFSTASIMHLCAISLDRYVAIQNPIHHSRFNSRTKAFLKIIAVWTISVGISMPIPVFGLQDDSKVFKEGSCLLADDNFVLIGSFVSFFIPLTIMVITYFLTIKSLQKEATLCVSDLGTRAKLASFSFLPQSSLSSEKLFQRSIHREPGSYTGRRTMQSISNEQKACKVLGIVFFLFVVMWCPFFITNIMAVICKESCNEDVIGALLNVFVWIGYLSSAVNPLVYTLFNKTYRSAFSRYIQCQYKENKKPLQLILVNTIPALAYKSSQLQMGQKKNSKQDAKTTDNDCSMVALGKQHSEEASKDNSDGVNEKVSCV
T5 sequence (P28223 whole entry T25N/H452Y): as the sequence (P28223 whole entry T25N, looked up) above, with H452Y counted along it
T1 sequence (P14842 whole entry): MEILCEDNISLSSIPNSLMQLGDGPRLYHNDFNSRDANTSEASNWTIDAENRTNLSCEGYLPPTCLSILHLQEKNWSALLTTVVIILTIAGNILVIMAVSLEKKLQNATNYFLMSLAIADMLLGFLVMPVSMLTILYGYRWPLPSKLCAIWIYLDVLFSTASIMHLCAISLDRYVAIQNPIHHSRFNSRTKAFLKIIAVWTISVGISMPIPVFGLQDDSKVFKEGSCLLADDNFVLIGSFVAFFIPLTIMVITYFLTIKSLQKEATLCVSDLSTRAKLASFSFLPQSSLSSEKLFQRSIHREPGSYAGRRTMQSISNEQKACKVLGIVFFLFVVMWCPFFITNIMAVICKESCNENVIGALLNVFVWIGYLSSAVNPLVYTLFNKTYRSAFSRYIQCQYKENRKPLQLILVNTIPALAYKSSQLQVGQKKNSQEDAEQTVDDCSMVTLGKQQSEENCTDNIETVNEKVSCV

On to `O=C(CCCN1CCC2(CC1)C(=O)NCN2c1ccccc1)c1ccc(F)cc1` [spiperone, reference compound], for which, in series [1], the “displacement of I125-LSD from the cortex (5HT2A)” value is on record as “displaces”. The “displacement of I125-LSD from the caudate (dopamine D2)” value in series [2] is on record as “displaces”.
The term IC50 denotes the point on the concentration scale where inhibition reaches its midpoint. On to `Cc1nc2sccn2c(=O)c1CCN1CCC(=C(c2ccc(F)cc2)c2ccc(F)cc2)CC1` [Ritanserin], for which the IC50 in series [3] turned out to be 19.4 nM.
A word on the pIC50: it is −log10 of the IC50, conventionally taken in molar units. The term melting point denotes the temperature, or range, at which the solid turns liquid. On to `COc1ccc(OC(=O)Nc2cccc(-c3nn(C)cc3Br)c2)cc1` [Compound 116100, N-[3-(4-bromo-1-methylpyrazol-3-yl)phenyl][4-methoxyphenoxy]carboxamide], for which the melting point lay in the range of 140.3 to 141.8 °C. In series [4], this molecule displayed an IC50 of 1.8 µM. For the same molecule, in series [1], the “displacement of I125-LSD from the cortex (5HT2A)” value is “selectively displace”. The “displacement of I125-LSD from the caudate (dopamine D2)” value in series [2] is on record as “not the caudate”. The molecule also gave a half-inhibitory concentration (IC50) in series [5] (Inositol Phosphate Accumulation AP-3 IC50 Value (μM)) of 0.0003 µM. This molecule had a pIC50 in series [6] above 9.00.
In turn, `Cn1cc(Br)c(-c2cccc(NC(=O)c3ccc(OC(F)(F)F)cc3)c2)n1` [Compound 116101, N-[3-(4-bromo-1-methylpyrazol-3-yl)phenyl][4-trifluoromethoxyphenyl]carboxamide] showed a melting point of 138.6 to 139.6 °C.
In the case of `Clc1ccc2c(c1)N=C(N1CCNCC1)c1ccccc1N2` [Normethylclozapin], the IC50 in series [3] (setting [8]) amounted to 21.4 nM.
For `Cn1cc(Br)c(-c2cccc(NC(=O)Nc3ccc(F)cc3)c2)n1` [Compound 116082, {[3-(4-bromo-1-methylpyrazol-3-yl)phenyl]-amino}-N-(4-fluorophenyl)carboxamide], the remaining activity at 10 µM in series [5] was 11%. For the same molecule, in series [6], the “difference in selectivity preference (IC50 values) for the 5HT2A receptor compared with the 5HT2C receptor” value was found to be 100 fold. Besides, the negative-log IC50 (pIC50) in series [6] (setting [9]) was 8.15.
Regarding `Cn1cc(Br)c(-c2cccc(NC(=O)Nc3ccccc3Cl)c2)n1` [Compound 116108, {[3-(4-bromo-1-methylpyrazol-3-yl)phenyl]-amino}-N-[2-chlorophenyl)carboxamide], the remaining activity at 10 µM in series [5] (setting [10]) was 6%. For the same molecule, the pIC50 in series [6] (setting [9]) was 6.60.
Consider `COc1cccc(NC(=O)Nc2cccc(-c3nn(C)cc3Br)c2)c1` [Compound 116111, {[3-(4-bromo-1-methylpyrazol-3-yl)phenyl]-amino}-N-(3-methoxyphenyl)carboxamide], for which the remaining activity at 10 µM in series [5] (setting [10]) was found to be 7%. In addition, the negative logarithm of the IC50 (pIC50) in series [6] (setting [9]) was 6.97.
For the molecule `Cc1c(Cl)cc(NC(=O)Nc2cccc(-c3nn(C)cc3Br)c2)cc1Cl` [Compound 116138, N-(3,5-dichloro-4-methylphenyl){[3-(4-bromo-1-methylpyrazol-3-yl)phenyl]amino}carboxamide], in series [5] (setting [10]), the remaining activity at 10 µM came to 23%. For the same molecule, the pIC50 in series [6] (setting [9]) is 6.91.
In the case of `CN1CCN2c3ccccc3Cc3ccccc3C2C1` (stereo not drawn) [mianserin], the “effect on basal constitutive binding of [35S]GTPγS” value in series [7] is given as “partial inverse agonist”. The “inhibition of serotonin-stimulated [35S]GTPγS binding” value in series [7] (30 μM) is “completely inhibited”.
Consider `CSc1ccc2c(c1)C(N1CCN(C)CC1)Cc1ccccc1S2` (stereo not drawn) [Methiothepin], for which the IC50 in series [3] (setting [8]) stood at 20.4 nM.
Regarding `Cn1cc(Br)c(-c2cccc(NC(=O)Nc3cccc(Cl)c3)c2)n1` [Compound 116105, {[3-(4-bromo-1-methylpyrazol-3-yl)phenyl]-amino}-N-(3-chlorophenyl)carboxamide], in series [5], the remaining activity at 10 µM turned out to be 11%. Moreover, the negative-log IC50 (pIC50) in series [6] (setting [9]) was 7.41.
As for `Cn1cc(Br)c(-c2cccc(NC(=O)NCc3ccccc3)c2)n1` [Compound 116143, N-[3-(4-bromo-1-methylpyrazol-3-yl)phenyl]-[phenylmethylamino]carboxamide], the pIC50 was 6.92 in series [5] and 7.33 in series [6] (setting [9]).
`Cn1cc(Br)c(-c2cccc(NC(=O)Nc3ccc(Cl)cc3)c2)n1` [Compound 116081, N-[3-(4-bromo-1-methylpyrazol-3-yl)phenyl][(4-chlorophenyl)amino]carboxamide]: in series [5], the remaining activity at 10 µM turned out to be 10% and the pIC50 was 8.49. Besides, the “difference in selectivity preference (IC50 values) for the 5HT2A receptor compared with the 5HT2C receptor” value in series [6] is recorded as 100 fold. The negative logarithm of the IC50 (pIC50) in series [6] (setting [9]) is 7.96.
Molecule `Cn1cc(Br)c(-c2cccc(NC(=O)c3ccc(Cl)cc3)c2)n1` [Compound 116120, N-[3-(4-bromo-1-methylpyrazol-3-yl)phenyl][4-chlorophenyl]carboxamide] had a melting point of 184.4 to 184.8 °C. Moreover, the IC50 in series [4] came to 1.2 µM.
With `Cn1cc(Br)c(-c2cccc(NC(=O)Nc3ccc(C#N)cc3)c2)n1` [Compound 116147, {[3-(4-bromo-1-methylpyrazol-3-yl)phenyl]-amino}-N-(4-cyanophenyl)carboxamide], in series [5], the remaining activity at 10 µM came to 12%. The negative-log IC50 (pIC50) in series [6] (setting [9]) is 8.70.
For `Cn1cc(Br)c(-c2cccc(NC(=O)NCc3ccc(OC(F)(F)F)cc3)c2)n1` [Compound 116115], the melting point is 144.6 to 145.8 °C. This molecule came in with an IC50 in series [4] of 1.2 µM.
On to `CC[C@@H](CO)NC(=O)[C@@H]1C=C2c3cccc4c3c(cn4C)C[C@H]2N(C)C1` [Methysergide], for which the negative logarithm of the IC50 (pIC50) in series [3] is 8.21.
`CC(C)c1ccc(NC(=O)Nc2cccc(-c3nn(C)cc3Br)c2)cc1` [Compound 116110, {[3-(4-bromo-1-methylpyrazol-3-yl)phenyl]amino}-N-[4-(methylethyl)phenyl]carboxamide]: the “IP3 % of Control” value in series [5] (setting [10]) amounted to 7%. Also, in series [6] (setting [9]), the pIC50 was 6.47.
Consider `Cn1cc(Br)c(-c2cccc(NC(=O)Nc3ccc(C(C)(C)C)cc3)c2)n1` [Compound 116119, N-[4-(tert-butyl)phenyl]{[3-(4-bromo-1-methylpyrazol-3-yl)phenyl]amino}carboxamide], for which the remaining activity at 10 µM in series [5] (setting [10]) worked out at 17%. Also, the pIC50 in series [6] (setting [9]) is 6.32.
For the molecule `Cn1cc(Br)c(-c2cccc(NC(=O)NC3CCCCC3)c2)n1` [Compound 116141, N-[3-(4-bromo-1-methylpyrazol-3-yl)phenyl]-[cyclohexylamino]carboxamide], the results for the negative logarithm of the IC50 (pIC50) in series [5] and in series [6] (setting [9]) were 6.94 and 7.09, respectively.
As to `Cn1cc(Br)c(-c2cccc(NC(=O)NCc3ccc(F)cc3)c2)n1` [Compound 116182, N-[3-(4-bromo-1-methylpyrazol-3-yl)phenyl]-[{(4-fluorophenyl)methyl}amino]carboxamide], the values for the pIC50 in series [5] and in series [6] (setting [9]) were 7.05 and 6.88, respectively.
Take `COc1ccccc1CC(=O)Nc1cccc(-c2nn(C)cc2Br)c1` [Compound 116178, N-[3-(4-bromo-1-methylpyrazol-3-yl)phenyl]-2-(2-methoxyphenyl)acetamide]: the negative logarithm of the IC50 (pIC50) in series [5] is 6.78; in series [6] (setting [9]) it was 5.64.
